Data taken from PubChem BioAssay AID256 (DTP/NCI, 2004).
“And” between values parts separate entries of the source, which are not always exact repeats. Equal values may be shown once. Toxic doses and inconclusive results are not listed. The calls were made as follows: active = survival T/C of 150% or more; inactive = T/C below 125% in these data.

System: CD2F1 mice, L1210 leukemia ip, survival T/C
Assay: NCI In Vivo Anticancer Drug Screen. Data for tumor model L1210 Leukemia (intraperitoneal) in CD2F1 (CDF1) mice
Settings: higher = longer survival
In short: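 Each value reflects a quotient of treated over vehicle control outcomes in mice with a transplanted tumor.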

Measured: T/C

CN(C)/N=N/c1nc[nH]c1C(N)=O
active: endpoint: mean survival time, dose: 67.0 mg/kg/injection, schedule: Q01DX009 (ip), vehicle: carboxymethylcellulose (CMC) 160 % of control | endpoint: mean survival time, dose: 97.0 mg/kg/injection, schedule: Q01DX009 (ip), vehicle: carboxymethylcellulose (CMC) 154 % of control | endpoint: mean survival time, dose: 100.0 mg/kg/injection, schedule: Q01DX009 (ip), vehicle: carboxymethylcellulose (CMC) 160 % of control | endpoint: mean survival time, dose: 150.0 mg/kg/injection, schedule: Q01DX009 (ip), vehicle: Klucel (hydroxypropylcellulose) (HPC) 172 % of control | endpoint: mean survival time, dose: 200.0 mg/kg/injection, schedule: Q01DX007 (ip), vehicle: saline 159 % of control | endpoint: mean survival time, dose: 200.0 mg/kg/injection, schedule: Q01DX009 (ip), vehicle: DMSO 174 % of control | endpoint: mean survival time, dose: 200.0 mg/kg/injection, schedule: Q01DX009 (ip), vehicle: saline 151 % of control | endpoint: mean survival time, dose: 200.0 mg/kg/injection, schedule: Q01DX009 (ip), vehicle: steriod suspending solution 157 % of control | endpoint: mean survival time, dose: 200.0 mg/kg/injection, schedule: Q01DX009 (oral), vehicle: steriod suspending solution 169 % of control | endpoint: mean survival time, dose: 400.0 mg/kg/injection, schedule: Q01DX009 (oral), vehicle: steriod suspending solution 152 % of control | endpoint: mean survival time, dose: 800.0 mg/kg/injection, schedule: Q08DX002 (ip), vehicle: steriod suspending solution 164 % of control
inactive: endpoint: mean survival time, dose: 1.56 mg/kg/injection, schedule: Q03HX024 (ip), vehicle: steriod suspending solution 105 % of control | endpoint: mean survival time, dose: 1.56 mg/kg/injection, schedule: Q03HX024 (oral), vehicle: steriod suspending solution 105 % of control | endpoint: mean survival time, dose: 2.9 mg/kg/injection, schedule: Q01DX009 (ip), vehicle: Klucel (hydroxypropylcellulose) (HPC) 103 % of control | endpoint: mean survival time, dose: 3.12 mg/kg/injection, schedule: Q03HX024 (ip), vehicle: steriod suspending solution 115 % of control | endpoint: mean survival time, dose: 3.12 mg/kg/injection, schedule: Q03HX024 (oral), vehicle: steriod suspending solution 107 % of control | endpoint: mean survival time, dose: 5.7 mg/kg/injection, schedule: Q01DX009 (ip), vehicle: Klucel (hydroxypropylcellulose) (HPC) 108 % of control | endpoint: mean survival time, dose: 6.25 mg/kg/injection, schedule: Q03HX016 (ip), vehicle: steriod suspending solution 107 % of control | endpoint: mean survival time, dose: 6.25 mg/kg/injection, schedule: Q03HX016 (oral), vehicle: steriod suspending solution 110 % of control | endpoint: mean survival time, dose: 6.25 mg/kg/injection, schedule: Q03HX024 (oral), vehicle: steriod suspending solution 104 % of control | endpoint: mean survival time, dose: 11.4 mg/kg/injection, schedule: Q01DX009 (ip), vehicle: Klucel (hydroxypropylcellulose) (HPC) 104 % of control and 105 % of control | endpoint: mean survival time, dose: 12.5 mg/kg/injection, schedule: Q01DX001 (ip), vehicle: distilled water + Tween-80 104 % of control and 105 % of control | endpoint: mean survival time, dose: 12.5 mg/kg/injection, schedule: Q03HX016 (ip), vehicle: steriod suspending solution 109 % of control | endpoint: mean survival time, dose: 12.5 mg/kg/injection, schedule: Q03HX016 (oral), vehicle: steriod suspending solution 109 % of control | endpoint: mean survival time, dose: 12.5 mg/kg/injection, schedule: Q03HX024 (ip), vehicle: steriod suspending solution 116 % of control | endpoint: mean survival time, dose: 22.7 mg/kg/injection, schedule: Q01DX009 (ip), vehicle: Klucel (hydroxypropylcellulose) (HPC) 115 % of control and 110 % of control | endpoint: mean survival time, dose: 25.0 mg/kg/injection, schedule: Q01DX001 (ip), vehicle: distilled water + Tween-80 103 % of control and 104 % of control | endpoint: mean survival time, dose: 25.0 mg/kg/injection, schedule: Q01DX009 (ip), vehicle: DMSO 110 % of control | endpoint: mean survival time, dose: 25.0 mg/kg/injection, schedule: Q01DX009 (ip), vehicle: saline 117 % of control | endpoint: mean survival time, dose: 25.0 mg/kg/injection, schedule: Q01DX009 (ip), vehicle: water 113 % of control | endpoint: mean survival time, dose: 25.0 mg/kg/injection, schedule: Q03HX016 (oral), vehicle: steriod suspending solution 110 % of control | endpoint: mean survival time, dose: 25.0 mg/kg/injection, schedule: Q03HX024 (ip), vehicle: steriod suspending solution 118 % of control | endpoint: mean survival time, dose: 25.0 mg/kg/injection, schedule: Q03HX024 (oral), vehicle: steriod suspending solution 122 % of control | endpoint: mean survival time, dose: 25.0 mg/kg/injection, schedule: Q04DX003 (ip), vehicle: other 110 % of control | endpoint: mean survival time, dose: 25.0 mg/kg/injection, schedule: Q04DX003 (ip), vehicle: water 105 % of control | endpoint: mean survival time, dose: 45.5 mg/kg/injection, schedule: Q01DX009 (ip), vehicle: Klucel (hydroxypropylcellulose) (HPC) 115 % of control and 123 % of control | endpoint: mean survival time, dose: 50.0 mg/kg/injection, schedule: Q01DX001 (ip), vehicle: distilled water + Tween-80 113 % of control and 106 % of control | endpoint: mean survival time, dose: 50.0 mg/kg/injection, schedule: Q01DX005 (ip), vehicle: other 117 % of control | endpoint: mean survival time, dose: 50.0 mg/kg/injection, schedule: Q01DX009 (ip), vehicle: DMSO 120 % of control | endpoint: mean survival time, dose: 50.0 mg/kg/injection, schedule: Q01DX009 (ip), vehicle: saline 116 % of control | endpoint: mean survival time, dose: 50.0 mg/kg/injection, schedule: Q01DX009 (ip), vehicle: steriod suspending solution 115 % of control | endpoint: mean survival time, dose: 50.0 mg/kg/injection, schedule: Q03DX003 (ip), vehicle: saline 110 % of control | endpoint: mean survival time, dose: 50.0 mg/kg/injection, schedule: Q03HX016 (ip), vehicle: steriod suspending solution 115 % of control | endpoint: mean survival time, dose: 50.0 mg/kg/injection, schedule: Q03HX016 (oral), vehicle: steriod suspending solution 105 % of control | endpoint: mean survival time, dose: 50.0 mg/kg/injection, schedule: Q04DX003 (ip), vehicle: Klucel (hydroxypropylcellulose) (HPC) 103 % of control | endpoint: mean survival time, dose: 50.0 mg/kg/injection, schedule: Q04DX003 (ip), vehicle: other 114 % of control | endpoint: mean survival time, dose: 50.0 mg/kg/injection, schedule: Q04DX003 (ip), vehicle: saline 105 % of control | endpoint: mean survival time, dose: 50.0 mg/kg/injection, schedule: Q04DX003 (ip), vehicle: water 117 % of control | endpoint: mean survival time, dose: 60.0 mg/kg/injection, schedule: Q04DX003 (ip), vehicle: saline 88 % of control and 108 % of control | endpoint: mean survival time, dose: 80.0 mg/kg/injection, schedule: Q04DX003 (ip), vehicle: saline 92 % of control and 106 % of control | endpoint: mean survival time, dose: 91.0 mg/kg/injection, schedule: Q01DX009 (ip), vehicle: Klucel (hydroxypropylcellulose) (HPC) 121 % of control | endpoint: mean survival time, dose: 100.0 mg/kg/injection, schedule: Q01DX001 (ip), vehicle: distilled water + Tween-80 114 % of control and 117 % of control | endpoint: mean survival time, dose: 100.0 mg/kg/injection, schedule: Q03DX003 (ip), vehicle: saline 120 % of control | endpoint: mean survival time, dose: 100.0 mg/kg/injection, schedule: Q03HX016 (ip), vehicle: steriod suspending solution 122 % of control | endpoint: mean survival time, dose: 100.0 mg/kg/injection, schedule: Q03HX016 (oral), vehicle: steriod suspending solution 116 % of control | endpoint: mean survival time, dose: 100.0 mg/kg/injection, schedule: Q04DX003 (ip), vehicle: Klucel (hydroxypropylcellulose) (HPC) 114 % of control | endpoint: mean survival time, dose: 100.0 mg/kg/injection, schedule: Q04DX003 (ip), vehicle: other 114 % of control and 120 % of control | endpoint: mean survival time, dose: 100.0 mg/kg/injection, schedule: Q04DX003 (ip), vehicle: saline 108 % of control | endpoint: mean survival time, dose: 100.0 mg/kg/injection, schedule: Q04DX003 (ip), vehicle: steriod suspending solution 116 % of control | endpoint: mean survival time, dose: 100.0 mg/kg/injection, schedule: Q04DX003 (oral), vehicle: steriod suspending solution 116 % of control | endpoint: mean survival time, dose: 100.0 mg/kg/injection, schedule: Q08DX002 (ip), vehicle: steriod suspending solution 117 % of control | endpoint: mean survival time, dose: 100.0 mg/kg/injection, schedule: Q08DX002 (oral), vehicle: steriod suspending solution 115 % of control | endpoint: mean survival time, dose: 150.0 mg/kg/injection, schedule: Q01DX001 (oral), vehicle: saline 101 % of control | endpoint: mean survival time, dose: 180.0 mg/kg/injection, schedule: Q04DX003 (ip), vehicle: saline 114 % of control and 108 % of control | endpoint: mean survival time, dose: 182.0 mg/kg/injection, schedule: Q01DX009 (ip), vehicle: Klucel (hydroxypropylcellulose) (HPC) 120 % of control | endpoint: mean survival time, dose: 200.0 mg/kg/injection, schedule: Q01DX001 (ip), vehicle: distilled water + Tween-80 120 % of control | endpoint: mean survival time, dose: 200.0 mg/kg/injection, schedule: Q01DX009 (ip), vehicle: water 118 % of control | endpoint: mean survival time, dose: 200.0 mg/kg/injection, schedule: Q04DX003 (ip), vehicle: Klucel (hydroxypropylcellulose) (HPC) 123 % of control | endpoint: mean survival time, dose: 200.0 mg/kg/injection, schedule: Q04DX003 (ip), vehicle: steriod suspending solution 116 % of control | endpoint: mean survival time, dose: 200.0 mg/kg/injection, schedule: Q04DX003 (oral), vehicle: steriod suspending solution 122 % of control | endpoint: mean survival time, dose: 200.0 mg/kg/injection, schedule: Q08DX002 (oral), vehicle: steriod suspending solution 118 % of control | endpoint: mean survival time, dose: 300.0 mg/kg/injection, schedule: Q01DX001 (oral), vehicle: saline 113 % of control | endpoint: mean survival time, dose: 364.0 mg/kg/injection, schedule: Q01DX009 (ip), vehicle: Klucel (hydroxypropylcellulose) (HPC) 63 % of control | endpoint: mean survival time, dose: 400.0 mg/kg/injection, schedule: Q01DX005 (ip), vehicle: other 113 % of control | endpoint: mean survival time, dose: 400.0 mg/kg/injection, schedule: Q01DX009 (ip), vehicle: water 96 % of control | endpoint: mean survival time, dose: 400.0 mg/kg/injection, schedule: Q08DX002 (ip), vehicle: steriod suspending solution 121 % of control | endpoint: mean survival time, dose: 600.0 mg/kg/injection, schedule: Q01DX001 (oral), vehicle: saline 121 % of control | endpoint: mean survival time, dose: 800.0 mg/kg/injection, schedule: Q08DX002 (oral), vehicle: steriod suspending solution 123 % of control | endpoint: median survival time, dose: 9.8 mg/kg/injection, schedule: Q03HX008 (ip), vehicle: Klucel (hydroxypropylcellulose) (HPC) 105 % of control | endpoint: median survival time, dose: 22.2 mg/kg/injection, schedule: Q03HX008 (ip), vehicle: Klucel (hydroxypropylcellulose) (HPC) 114 % of control | endpoint: median survival time, dose: 33.3 mg/kg/injection, schedule: Q03HX008 (ip), vehicle: Klucel (hydroxypropylcellulose) (HPC) 123 % of control | endpoint: median survival time, dose: 48.0 mg/kg/injection, schedule: Q01DX005 (ip), vehicle: Klucel (hydroxypropylcellulose) (HPC) 115 % of control | endpoint: median survival time, dose: 50.0 mg/kg/injection, schedule: Q02DX005 (ip), vehicle: Klucel (hydroxypropylcellulose) (HPC) 121 % of control | endpoint: median survival time, dose: 72.0 mg/kg/injection, schedule: Q01DX005 (ip), vehicle: Klucel (hydroxypropylcellulose) (HPC) 123 % of control | endpoint: median survival time, dose: 100.0 mg/kg/injection, schedule: Q02DX005 (ip), vehicle: Klucel (hydroxypropylcellulose) (HPC) 117 % of control | endpoint: median survival time, dose: 108.0 mg/kg/injection, schedule: Q01DX005 (ip), vehicle: Klucel (hydroxypropylcellulose) (HPC) 124 % of control | endpoint: median survival time, dose: 240.0 mg/kg/injection, schedule: Q01DX001 (ip), vehicle: Klucel (hydroxypropylcellulose) (HPC) 115 % of control | endpoint: median survival time, dose: 600.0 mg/kg/injection, schedule: Q01DX001 (ip), vehicle: Klucel (hydroxypropylcellulose) (HPC) 121 % of control | endpoint: median survival time, dose: 900.0 mg/kg/injection, schedule: Q01DX001 (ip), vehicle: Klucel (hydroxypropylcellulose) (HPC) 123 % of control
